From patent US11932628B2, “Selective small molecule peptidomimetic melanocortin ligands” (REGENTS OF THE UNIVERSITY OF MINNESOTA, priority 2021, dated 2024)

Key:
[1] = target: T1, mMC4R (Mus musculus, UniProt P56450); experiment: Schild analysis of antagonist activity at mMC4R; conditions: for mMC4R Antagonist pA2: Schild analysis
Method: The antagonist activity may also be reported as a Ki value, which is the inverse Log of pA2. […] Compounds were dissolved in DMSO at a stock concentration of 10^−2 M and stored at −20° C. until assayed. HEK-293 cells stably expressing the selected melanocortin receptors were transiently transfected with 4 μg of CRE/β-galactosidase reporter gene. Briefly, 5000-15000 post transfection cells were plated into collagen treated 96-well plates (Nunc) and incubated overnight. […] The assay media was aspirated, and 50 μL of lysis buffer (250 mM Tris-HCl pH=8.0 and 0.1% Triton X-100) was added. The plates were stored at −80° C. overnight. The plates containing the cell lysates were thawed the following day. Aliquots of 10 μL were taken from each well and transferred to another 96-well plate for relative protein determination. To the cell lysate plates, 40 μL of phosphate-buffered saline with 0.5% BSA was added to each well. Subsequently, 150 μL of substrate buffer (60 mM sodium phosphate, 1 mM MgCl2, 10 mM KCl, 5 mM β-mercaptoethanol, 2 mg/mL ONPG) was added to each well and the plates were incubated at 37° C. The sample absorbance, OD405, was measured using a 96-well plate reader (Molecular Devices). The relative protein was determined by adding 200 μL of 1:5 dilution BioRad G250 protein dye:water to the 10 μL of cell lysate sample taken previously, and the OD595 was measured on a 96-well plate reader (Molecular Devices). Data points were normalized to forskolin and the relative protein content were used as positive controls. The EC50 values represent the mean of three or more independent experiments. The EC50 estimates, and their associated standard errors of the mean, were determined by fitting the data to a nonlinear least-squares analysis using the PRISM program (v4.0, GraphPad Inc.).
The reported values are on a log scale. In order to put them into perspective, their approximate binding disassociation constants, Ki values, can be calculated through the following relationship pA2=−Log10 (Ki).

[2] = target: mMC1R (Mus musculus, UniProt Q01727); experiment: cAMP based functional bioassay (CRE/β-galactosidase reporter), agonist activity at mMC1R; conditions: for mMC1R Activity @ 10 μM (class) / mMC1R Activity @ 10 μM (relative activity, percent): reported where receptor not activated to full activity
Chain of mMC1R (Q01727 whole entry): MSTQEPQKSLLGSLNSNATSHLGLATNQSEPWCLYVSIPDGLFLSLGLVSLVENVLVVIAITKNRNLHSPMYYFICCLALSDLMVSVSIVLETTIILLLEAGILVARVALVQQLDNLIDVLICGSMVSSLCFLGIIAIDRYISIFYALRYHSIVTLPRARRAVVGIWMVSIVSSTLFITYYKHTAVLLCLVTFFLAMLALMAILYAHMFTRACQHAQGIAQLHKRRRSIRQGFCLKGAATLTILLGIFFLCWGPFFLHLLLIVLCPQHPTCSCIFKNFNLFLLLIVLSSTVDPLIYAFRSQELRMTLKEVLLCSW
Method: (§1) The compounds were evaluated using a whole cell assay.
(§2) Compounds were dissolved in DMSO at a stock concentration of 10^−2 M and stored at −20° C. until assayed. HEK-293 cells stably expressing the selected melanocortin receptors were transiently transfected with 4 μg of CRE/β-galactosidase reporter gene. Briefly, 5000-15000 post transfection cells were plated into collagen treated 96-well plates (Nunc) and incubated overnight. […] The assay media was aspirated, and 50 μL of lysis buffer (250 mM Tris-HCl pH=8.0 and 0.1% Triton X-100) was added. The plates were stored at −80° C. overnight. The plates containing the cell lysates were thawed the following day. Aliquots of 10 μL were taken from each well and transferred to another 96-well plate for relative protein determination. To the cell lysate plates, 40 μL of phosphate-buffered saline with 0.5% BSA was added to each well. Subsequently, 150 μL of substrate buffer (60 mM sodium phosphate, 1 mM MgCl2, 10 mM KCl, 5 mM β-mercaptoethanol, 2 mg/mL ONPG) was added to each well and the plates were incubated at 37° C. The sample absorbance, OD405, was measured using a 96-well plate reader (Molecular Devices). The relative protein was determined by adding 200 μL of 1:5 dilution BioRad G250 protein dye:water to the 10 μL of cell lysate sample taken previously, and the OD595 was measured on a 96-well plate reader (Molecular Devices). Data points were normalized to forskolin and the relative protein content were used as positive controls. The EC50 values represent the mean of three or more independent experiments. The EC50 estimates, and their associated standard errors of the mean, were determined by fitting the data to a nonlinear least-squares analysis using the PRISM program (v4.0, GraphPad Inc.).
(§3) The results are tabulated in the form of EC50 values. In the case where the particular receptor was not activated to full activity at 100,000 nM, then the relative activity was reported.

[3] = target: mMC5R (Mus musculus, UniProt P41149); experiment: cAMP based functional bioassay (CRE/β-galactosidase reporter), agonist activity at mMC5R
Chain of mMC5R (P41149 whole entry): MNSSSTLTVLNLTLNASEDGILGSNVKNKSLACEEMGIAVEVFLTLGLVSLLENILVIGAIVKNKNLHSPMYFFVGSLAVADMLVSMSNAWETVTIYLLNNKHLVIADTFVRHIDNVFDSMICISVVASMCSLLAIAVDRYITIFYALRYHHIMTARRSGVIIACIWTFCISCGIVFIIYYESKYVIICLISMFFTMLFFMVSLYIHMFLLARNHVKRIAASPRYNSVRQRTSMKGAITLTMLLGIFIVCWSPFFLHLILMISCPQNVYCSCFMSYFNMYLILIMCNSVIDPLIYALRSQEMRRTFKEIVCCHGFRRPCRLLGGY
Method: as §1, §2, §3

[4] = target: mMC3R (Mus musculus, UniProt P33033); experiment: cAMP based functional bioassay (CRE/β-galactosidase reporter), agonist activity at mMC3R; conditions: for mMC3R Activity @ 10 μM (class) / mMC3R Activity @ 10 μM (relative activity, percent): reported where receptor not activated to full activity
Chain of mMC3R (P33033 whole entry): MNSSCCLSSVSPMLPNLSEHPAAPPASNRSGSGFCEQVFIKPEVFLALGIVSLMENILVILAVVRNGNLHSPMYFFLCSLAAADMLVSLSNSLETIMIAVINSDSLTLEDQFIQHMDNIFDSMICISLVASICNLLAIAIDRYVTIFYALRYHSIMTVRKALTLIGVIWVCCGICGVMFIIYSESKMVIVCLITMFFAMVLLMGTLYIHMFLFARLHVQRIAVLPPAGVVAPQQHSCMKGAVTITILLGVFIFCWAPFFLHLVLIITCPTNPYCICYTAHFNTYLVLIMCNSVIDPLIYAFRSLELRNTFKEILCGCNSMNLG
Method: as §1, §2, §3

[5] = target: T1, mMC4R; experiment: cAMP based functional bioassay (CRE/β-galactosidase reporter), agonist activity at mMC4R; set-up: Emax: dose or concentration left out as unconfirmed; conditions: for mMC4R Activity @ 10 μM (relative activity, percent) / mMC4R Activity @ 10 μM (class): reported where receptor not activated to full activity; for Emax: read-out: maximal activation at the melanocortin-4 receptor
Method: as §1, §2, §3

T1 sequence (P56450 whole entry): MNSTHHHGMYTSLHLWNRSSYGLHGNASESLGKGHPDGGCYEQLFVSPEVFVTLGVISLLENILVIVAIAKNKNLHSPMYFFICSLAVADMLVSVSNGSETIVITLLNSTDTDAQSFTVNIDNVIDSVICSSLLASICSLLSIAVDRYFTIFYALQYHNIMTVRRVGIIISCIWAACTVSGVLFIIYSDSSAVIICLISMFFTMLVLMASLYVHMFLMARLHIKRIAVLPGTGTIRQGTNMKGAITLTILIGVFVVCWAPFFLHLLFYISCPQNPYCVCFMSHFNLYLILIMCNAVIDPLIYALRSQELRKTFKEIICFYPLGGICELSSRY

Compound | Kb [1] [nM] | EC50 [2] [nM] | EC50 [3] [nM] | EC50 [4] [nM] | mMC4R Activity @ 10 μM (relative activity, percent) [5] [%] | Ki [1] [nM] | mMC4R Antagonist pA2 [1] | EC50 values at the melanocortin-3 receptor (in words) [4] | Emax [5] [%] | mMC4R Activity @ 10 μM (class) [5] | mMC1R Activity @ 10 μM (class) [2] | mMC1R Activity @ 10 μM (relative activity, percent) [2] [%] | mMC3R Activity @ 10 μM (class) [4] | mMC3R Activity @ 10 μM (relative activity, percent) [4] [%]
CC(C)[C@@H]1CNC(=N)N1C[C@@H]1CCCN1C[C@@H](Cc1ccccc1)N1C[C@@H]([C@@H](C)O)N(CC2CCC(C(C)(C)C)CC2)C1=N (stereo partly drawn) [TPI 2509-32, (R)-1-((S)-3-((4-(tert-butyl)cyclohexyl)methyl)-2-imino-1-((R)-1-((S)-2-(((R)-2-imino-5-isopropylimidazolidin-1-yl)methyl)pyrrolidin-1-yl)-3-phenylpropan-2-yl)imidazolidin-4-yl)ethanol] | 316 | 600 ± 340 | 490 ± 155 | 420 ± 120 | – | 320 | 6.5±0.5 | nanomolar | > 20 | A (A: <50%) | – | – | – | –
CCC[C@@H]1CN([C@H](CC2CCCCC2)CN2CCC[C@H]2CN2C(=N)NC[C@H]2C(C)C)C(=N)N1CC1CCC(C(C)(C)C)CC1 (stereo partly drawn) [TPI 2509-26, (R)-3-((4-(tert-butyl)cyclohexyl)methyl)-1-((R)-1-cyclohexyl-3-((S)-2-(((R)-2-imino-5-isopropylimidazolidin-1-yl)methyl)pyrrolidin-1-yl)propan-2-yl)-4-propylimidazolidin-2-imine] | 1580 | – | 540 ± 50 | 350 ± 20 | 50 | – | – | – | – | A (A: <50%) | B (B: >51%) | – | – | –
CC(C)C[C@@H]1CNC(=N)N1C[C@@H]1CCCN1C[C@@H](Cc1ccccc1)N1C[C@@H]([C@@H](C)O)N(CC2CCC(C(C)(C)C)CC2)C1=N (stereo partly drawn) [TPI 2509-14, (R)-1-((S)-3-((4-(tert-butyl)cyclohexyl)methyl)-2-imino-1-((R)-1-((S)-2-(((R)-2-imino-5-isobutylimidazolidin-1-yl)methyl)pyrrolidin-1-yl)-3-phenylpropan-2-yl)imidazolidin-4-yl)ethanol] | 100 | – | 530 ± 50 | 310 ± 60 | – | 100 | 7.0±0.7 | nanomolar | > 20 | A (A: <50%) | B (B: >51%) | 58 | – | –
CC(C)C[C@@H]1CNC(=N)N1C[C@@H]1CCCN1C[C@@H](Cc1ccccc1)N1C[C@@H]([C@@H](C)O)N(CC23CC4CC(CC(C4)C2)C3)C1=N [TPI 2509-13, (R)-1-((S)-3-(adamantan-1-ylmethyl)-2-imino-1-((R)-1-((S)-2-(((R)-2-imino-5-isobutylimidazolidin-1-yl)methyl)pyrrolidin-1-yl)-3-phenylpropan-2-yl)imidazolidin-4-yl)ethanol] | 2510 | – | 810 ± 280 | 360 ± 40 | 58 | – | – | – | – | B (B: >51%) | B (B: >51%) | 41 | – | –
CC(C)[C@@H]1CNC(=N)N1C[C@@H]1CCCN1C[C@@H](CC1CCCCC1)N1C[C@@H]([C@@H](C)O)N(CC23CC4CC(CC(C4)C2)C3)C1=N [TPI 2509-22, (R)-1-((S)-3-(adamantan-1-ylmethyl)-1-((R)-1-cyclohexyl-3-((S)-2-(((R)-2-imino-5-isopropylimidazolidin-1-yl)methyl)pyrrolidin-1-yl)propan-2-yl)-2-iminoimidazolidin-4-yl)ethanol] | 1580 | 200 ± 80 | 600 ± 210 | 370 ± 90 | 49 | – | – | – | – | A (A: <50%) | – | – | – | –
CCC[C@@H]1CN([C@H](Cc2ccccc2)CN2CCC[C@H]2CN2C(=N)NC[C@H]2CC(C)C)C(=N)N1CC1CCC(C(C)(C)C)CC1 (stereo partly drawn) [TPI 2509-17] | – | – | 480 ± 170 | – | 28 | – | – | – | – | A (A: <50%) | A (A: <50%) | 38 | B (B: >51%) | 83

Now those with a lower EC50 [3], led by results:

Kb [1] [nM] | EC50 [2] [nM] | EC50 [3] [nM] | EC50 [4] [nM] | mMC4R Activity @ 10 μM (relative activity, percent) [5] [%] | Ki [1] [nM] | mMC4R Antagonist pA2 [1] | EC50 values at the melanocortin-3 receptor (in words) [4] | Emax [5] [%] | mMC4R Activity @ 10 μM (class) [5] | mMC1R Activity @ 10 μM (class) [2] | mMC1R Activity @ 10 μM (relative activity, percent) [2] [%] | mMC3R Activity @ 10 μM (class) [4] | mMC3R Activity @ 10 μM (relative activity, percent) [4] [%] | Compound
1580 | 440 ± 140 | 180 ± 90 | 360 ± 10 | 50 | – | – | – | – | – | – | – | – | – | CC(C)[C@@H]1CNC(=N)N1C[C@@H]1CCCN1C[C@@H](Cc1ccccc1)N1C[C@@H]([C@@H](C)O)N(CC23CC4CC(CC(C4)C2)C3)C1=N [TPI 2509-31, (R)-1-((S)-3-(adamantan-1-ylmethyl)-2-imino-1-((R)-1-((S)-2-(((R)-2-imino-5-isopropylimidazolidin-1-yl)methyl)pyrrolidin-1-yl)-3-phenylpropan-2-yl)imidazolidin-4-yl)ethanol]
1580 | 300 ± 90 | 140 ± 70 | 210 ± 50 | 45 | – | – | – | – | – | – | – | – | – | CC(C)C[C@@H]1CNC(=N)N1C[C@@H]1CCCN1C[C@@H](CC1CCCCC1)N1C[C@@H]([C@@H](C)O)N(CC2CCC(C(C)(C)C)CC2)C1=N (stereo partly drawn) [TPI 2509-5, (R)-1-((S)-3-((4-(tert-butyl)cyclohexyl)methyl)-1-((R)-1-cyclohexyl-3-((S)-2-(((R)-2-imino-5-isobutylimidazolidin-1-yl)methyl)pyrrolidin-1-yl)propan-2-yl)-2-iminoimidazolidin-4-yl)ethanol]
1260 | 300 ± 120 | 150 ± 20 | 220 ± 30 | 41 | – | – | – | – | A (A: <50%) | – | – | – | – | CC(C)[C@@H]1CNC(=N)N1C[C@@H]1CCCN1C[C@@H](CC1CCCCC1)N1C[C@@H]([C@@H](C)O)N(CC2CCC(C(C)(C)C)CC2)C1=N (stereo partly drawn) [TPI 2509-23, (R)-1-((S)-3-((4-(tert-butyl)cyclohexyl)methyl)-1-((R)-1-cyclohexyl-3-((S)-2-(((R)-2-imino-5-isopropylimidazolidin-1-yl)methyl)pyrrolidin-1-yl)propan-2-yl)-2-iminoimidazolidin-4-yl)ethanol]
– | 290 ± 20 | 380 ± 50 | – | 23 | – | – | – | – | A (A: <50%) | – | – | B (B: >51%) | 65 | CC[C@H](C)[C@@H]1CNC(=N)N1C[C@@H]1CCCN1C[C@@H](Cc1ccccc1)N1CC(Cc2ccc(O)cc2)N(CC2CCC(C(C)(C)C)CC2)C1=N (stereo partly drawn) [TPI 2509-40, 4-((1-((R)-1-((S)-2-(((R)-5-((S)-sec-butyl)-2-iminoimidazolidin-1-yl)methyl)pyrrolidin-1-yl)-3-phenylpropan-2-yl)-3-((4-(tert-butyl)cyclohexyl)methyl)-2-iminoimidazolidin-4-yl)methyl)phenol]
3160 | 330 ± 110 | 340 ± 140 | 240 ± 40 | 55 | – | – | – | – | – | – | – | – | – | CC(C)C[C@@H]1CNC(=N)N1C[C@@H]1CCCN1C[C@@H](CC1CCCCC1)N1C[C@@H]([C@@H](C)O)N(CC23CC4CC(CC(C4)C2)C3)C1=N [TPI 2509-4, (R)-1-((S)-3-(adamantan-1-ylmethyl)-1-((R)-1-cyclohexyl-3-((S)-2-(((R)-2-imino-5-isobutylimidazolidin-1-yl)methyl)pyrrolidin-1-yl)propan-2-yl)-2-iminoimidazolidin-4-yl)ethanol]
